# According to patent US20050038113A1, “Valproic acid and derivatives for the combinatorial therapeutic treatment of human cancers and for the treatment of tumor metastasis and minimal residual disease” (G2M Cancer Drugs AG, priority 2001, published 2005):
# What was measured:
# [1] = tested on: HCT-15 colon cancer cells; experiment: SRB-assay, reduction in total cellular biomass; type: cell-based, human; conditions: 5-FU alone at doses lower than 0.5 μM, 48 hours
# Procedure: (§1) The reduction in cellular biomass was measured by SRB-assay. For this assay cells were seeded in 96 well culture dishes at densities between 3000 and 8000 cells per well. […] Cultures were fixed with cold TCA producing a final TCA concentration of 10%. After 1 hour of incubation at 4° C. the cells were washed five times with water and air dried. Fixed cells were stained for 30 minutes with 0,4% (wt/vol) Sulforhodamine B (SRB) dissolved in 1% acetic acid and washed four times with 1% acetic acid to remove unbound dye. After air drying bound dye was solubilized with 10 mM unbuffered Tris base (pH 10,5) for 5 minutes. Optical densities were read on a Titertek Multiskan Plus spectrophotometric plate reader at 550 nm. Six test wells for each dose-response were set in parallel with 12 growth control wells per cell line. A measure of the cell population density at time 0 (To; the time at which the drug was added) was also made from 12 extra reference wells of cells fixed with TCA just prior to drug addition to the test plates. Background OD of complete medium with 5% FBS fixed and stained as described above was also determined in 12 separate wells. From the unprocessed OD data from each microtiter plate the background OD measurements (i.e. OD of complete medium plus stain and OD of cells at T0) were subtracted thus giving the reduction of cellular biomass of the cells.
# This was in particular obvious when lower concentrations of 5-FU were used. E.g. […] Thus, this combinatorial activity of these two drugs must be explained via a synergistic activity of this treatment.
# [2] = tested on: HCT-116 colon cancer cells; experiment: cell counts and propidium iodide cell cycle/apoptosis analysis; type: cell-based, human
# Procedure: For FIG. 14 cells were seeded in 6 well culture dishes at 100000 cells/well. The day after, they were treated with the indicated drugs (5-FU: 2 μM 5-Fluoruracile; AD: 20 ng/ml adriamycin; IT: 3 μM irinothecan), and then cultured for further 48 hours. Cells were counted at 24 h and 48 h after treatment. All of the assays have been performed in triplicate.
# For FIG. 15 cells were seeded in 6 well culture dishes at 100000 cells/well. […] (A), results of triplicate counts of viable cells. (B), cells were stained with propidium iodide after permeabilization and fixation. Results of a cell cycle analysis are presented as percentage (%) of cells in G1, S, G2+M, and sub-G1 (apoptotic cells): all of the assays have been performed in triplicate.
# (A), results of triplicate counts of viable cells. (B), cells were stained with propidium iodide after permeabilization and fixation. Results of a cell cycle analysis are presented as percentage (%) of apoptotic cells: all of the assays have been performed in triplicate.
# For FIG. 17 cells were seeded in 10 cm culture dishes (1 million cells/dish). […] The day after, they were treated with the following drugs: 5-FU (panel A), AD (B), or IT (C), at the concentrations as indicated for FIG. 14. Cells were analyzed at the day of treatment, 24 h, and 48 h following treatment. Upper panels, results of triplicate counts of viable cells. Lower panels, cells were stained with propidium iodide after permeabilization and fixation. Results of a cell cycle analysis are presented as percentage (%) of apoptotic cells: all of the assays have been performed in triplicate.
# [3] = tested on: DU-145 prostate cancer cells; experiment: SRB-assay, reduction in total cellular biomass; type: cell-based, human; conditions: 48 hours
# Procedure: as §1
# (§2) The effect on the reduction in total cellular biomass was measured by SRB-assay (see example 1 for assay and read-out procedure details).
# Results using MCF-7 estrogen-dependent breast cancer cells are presented in FIG. 18 and using DU-145 prostate cancer cells in FIG. 19. […] The effect on cell growth was measured by SRB-assay as described in example 1.
# [4] = tested on: PC-3 prostate cancer cells; experiment: SRB-assay, reduction in total cellular biomass; type: cell-based, human; conditions: 0.75 mM racemic 4-yn VPA in combination with Camptothecin, 48 hours
# Procedure: as §1, with “From the unprocessed OD data from each microtiter plate the background OD measurements (i.e. OD of complete medium plus stain and OD of cells at T0) were subtracted thus giving the reduction of cellular biomass of the cells.” left out
# as §2
# [5] = tested on: primary AML blasts from AML patients; experiment: ex vivo differentiation, viability and apoptosis of leukemic blasts; type: cell-based, human
# Procedure: Each point represents the mean of a set of data determined in triplicate (Example 15). VPA may cause synergistic therapeutic responses.
# Cases were classified according to the French-American-British (FAB) classification (Bennett et al., Ann Intern Med 103, 1985). Cytogenetic analysis and RT-PCR tests were performed to rule out the presence of the APL associated fusion genes according to standard methods as described (Mandelli et al., Blood 90, 1997; Mancini et al., Br J Haematol. 91, 1995; Grimwade et al., Blood 90, 1999).
# [6] = tested on: F9 cells; conditions: cited from earlier work
# [7] = tested on: PPARδ; conditions: cited from earlier work
# [8] = tested on: PML-RAR leukemia; conditions: PML-RAR patient with multiple relapses after retinoic acid and chemotherapy; cited from earlier work
# [9] = drug alone at the concentrations used (5-FU 2 μM; AD 20 ng/ml; IT 3 μM)
compound,measurement,setting,value
"O=c1[nH]cc(F)c(=O)[nH]1 [5-FU, 5-Fluorouracil]",cellular biomass,[1],increase of the cellular biomass
same,apoptosis,[2]; [9],did not induce apoptosis significantly
same,growth rate,[2]; [9],only moderately affected the growth rate
same,apoptosis,[2]; high concentrations of 5-FU alone (not shown),efficiently induce apoptosis
same,apoptosis,[2]; lower doses of 5-FU alone,only a modest effect
same,cell number,"[2]; lower doses of 5-FU alone, due to reduction in cycling cells",reduction in cell number
N.N.[Cl][Pt][Cl] [cisPlatinum],cellular biomass,[3]; cisPlatinum alone at concentrations lower than 10 μM,no decrease of the cellular biomass
same,cellular biomass,[3]; cisPlatinum alone at doses lower than 1 μM,no decrease of the cellular biomass
COc1cccc2c1C(=O)c1c(O)c3c(c(O)c1C2=O)C[C@@](O)(C(=O)CO)C[C@@H]3O[C@H]1C[C@H](N)[C@H](O)[C@H](C)O1 [adriamicine],apoptosis,[2]; [9],did not induce apoptosis significantly
same,growth rate,[2]; [9],only moderately affected the growth rate
CCc1c2c(nc3ccc(OC(=O)N4CCC(N5CCCCC5)CC4)cc13)-c1cc3c(c(=O)n1C2)COC(=O)[C@]3(O)CC [irinothecan],apoptosis,[2]; [9],did not induce apoptosis significantly
same,growth rate,[2]; [9],only moderately affected the growth rate
"C#CCC(CCC)C(=O)O (racemic) [4-yn VPA, 2-n-Propyl-4-pentynoic acid]",reduction of cellular biomass,[3]; 0.75 mM racemic 4-yn VPA in combination with cis Platinum lower than 10 μM,synergistic reduction of cellular biomass
same,reduction in cellular biomass,[4],at least additive therapeutic effect
CC(/C=C/C(=O)NO)=C\[C@@H](C)C(=O)c1ccc(N(C)C)cc1 [TSA],synergistic activities in combination (FIGS. 21 and 25),"[5]; TSA +/- RA, compared to the extent VPA does",does not display this synergistic activities
same,"apoptosis of AML blasts (FACS, propidium-iodide)","[5]; single agent, 4 cases tested","not TSA, was found effective in inducing apoptosis"
same,F9 cell differentiation,[6],induces the same type of F9 cell differentiation as VPA
same,PPARδ activation,[7],activates PPARδ
phenylbutyrate,clinical response,[8],complete remission of the leukemia
